Structures are written as SMILES. In brackets after ≈: the same amount, converted by molar mass.

In test [1] the test system is Plasmodium falciparum. The experiment in a line: Antiplasmodial activity after 24 hrs against drug-sensitive Plasmodium falciparum NF54 infected human erythrocytes by [3H]hypoxanthine uptake. It is filed as functional, organism-based.
Test [2] relates to Plasmodium falciparum. The experiment in a line: Antiplasmodial activity after 24 hrs against chloroquine-sensitive Plasmodium falciparum D6 infected human erythrocytes by [3H]hypoxanthine uptake. It is filed as functional, organism-based.
The subject of test [3] is Plasmodium falciparum. As to the kind of experiment: Antiplasmodial activity after 24 hrs against chloroquine-resistant Plasmodium falciparum W2 infected human erythrocytes by [3H]hypoxanthine uptake. It is filed as functional, organism-based.
Test [4] concerns Plasmodium falciparum. As to the kind of experiment: Antiplasmodial activity after 24 hrs against chloroquine,pyrimethamine-resistant Plasmodium falciparum K1 infected human erythrocytes by [3H]hypoxanthine uptake. It is filed as functional, organism-based.
Test [5] can be described thus: Cytotoxicity against human erythrocytes. It is filed as cell-based. The conditions noted are these: Erythrocyte.

For `C/C(=C\CO)[C@H]1C[C@H]2C(C)(C)C(=O)C=C[C@]2(C)OO1` (relative stereo) [OKUNDOPEROXIDE], the half-inhibitory concentration (IC50) was 1.31 µg/mL (≈ 4.91 µM) in the test with Plasmodium falciparum [1]; 0.483 µg/mL (≈ 1.81 µM) with Plasmodium falciparum [2]; 0.47 µg/mL (≈ 1.76 µM) in the test with Plasmodium falciparum [3]; 1.5 µg/mL (≈ 5.62 µM) in the test on Plasmodium falciparum [4]; 22.7 µg/mL (≈ 85.2 µM) in test [5].

In turn, `COc1cc([C@@H]2c3cc4c(cc3[C@H](O)[C@H]3COC(=O)[C@H]23)OCO4)cc(OC)c1OC` [PODOFILOX] came in with an IC50 in test [5] of 0.007 µg/mL (≈ 0.0169 µM).

One may read the IC50 as the concentration that inhibits the measured activity by half. High values mean lower potency, low ones higher potency.

Source of the values: ChEMBL document CHEMBL1151966, “Okundoperoxide, a bicyclic cyclofarnesylsesquiterpene endoperoxide from Scleria striatinux with antiplasmodial activity” (J Nat Prod, 2009).
